Test results reported in patent US12006330B2, “Substituted macrocyclic compounds and related methods of treatment” (Alkermes, Inc., priority 2020, dated 2024).

molecular target: T1, human orexin-2 receptor (OX2R) (Homo sapiens, UniProt O43614); assay: Human OX2R IP1 assay; assay type: cell-based; conditions: T-Rex CHO cells stably overexpressing human OX2R; IP1 accumulation; 1 hr at 37 degrees C; mean EC50
T1 construct: expressed in transfected cells
T1 sequence (O43614 1-444): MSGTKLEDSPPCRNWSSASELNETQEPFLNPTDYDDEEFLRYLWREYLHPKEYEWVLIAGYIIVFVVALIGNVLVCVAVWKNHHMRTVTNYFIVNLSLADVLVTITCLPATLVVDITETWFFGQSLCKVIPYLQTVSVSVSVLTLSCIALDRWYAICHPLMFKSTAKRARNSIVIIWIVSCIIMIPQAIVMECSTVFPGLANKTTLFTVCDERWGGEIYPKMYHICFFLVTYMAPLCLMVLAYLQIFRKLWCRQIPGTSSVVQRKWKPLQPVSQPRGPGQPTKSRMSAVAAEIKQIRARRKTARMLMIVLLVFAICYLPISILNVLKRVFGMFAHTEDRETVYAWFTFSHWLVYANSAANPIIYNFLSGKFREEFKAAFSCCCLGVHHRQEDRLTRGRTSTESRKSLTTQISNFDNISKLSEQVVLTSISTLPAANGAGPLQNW
Description: T-Rex CHO cells stably overexpressing the human orexin-2 receptor (OX2R) were induced overnight with 1 μg/mL of doxycycline in a T225 flask. 24 hours post induction, cells were lifted with accutase and plated into a 384-well proxy plate at 30,000 cells/well. Cells were then treated with different test compounds in 1× stimulation buffer containing 10 mM Hepes, 1 mM CaCl2), 0.5 mM MgCl2, 4.2 mM KCl, 146 mM NaCl, 5.5 mM glucose, and 50 mM LiCl, pH 7.4, for 1 hr at 37 degrees C. Following incubation, the reaction was terminated by the addition of detection mix, which is composed of IP1-d2 and anti-IP1-cryptate diluted in lysis buffer as well as 1× stimulation buffer. The plates were allowed to incubate for 1 hour at room temperature and were then read in the EnVision® multimode plate reader, measuring inositol phosphate levels.
Cisbio IP1 is a cell-based functional assay quantifying the accumulation of inositol monophosphate (IP), a metabolite released as a result of orexin 2 receptor activation through the phospholipase C-Gq signaling pathway. This is a competitive immunoassay in which the IP1 produced by the cells upon receptor activation competes with the IP1 analog coupled to the d2 fluorophore (acceptor) for binding to an anti-IP1 monoclonal antibody labeled with Eu cryptate (donor). The measured HTRF-FRET based signal is inversely proportional to the IP1 concentration produced.
The EC50 values reported in Table 2 were obtained according to the human OX2R IP1 assay described above. Data are the mean EC50 values S.E.M. Reference Compound A is methyl (2R,3S)-3-((methylsulfonyl)amino)-2-(((cis-4-phenylcyclohexyl)oxy)methyl)-piperidine-1-carboxylate (Example 5 of PCT publication No. WO2017/135306). Reference Compound B is N-((2S,3S)-1-(2-hydroxy-2-methylpropanoyl)-2-((2,3′,5′-trifluorobiphenyl-3-yl)methyl)pyrrolidin-3-yl)methanesulfonamide (Example 483 of PCT publication No. WO2019/027058).

Compound | EC50
Cc1ncnc2c1[C@H]1CC[C@H](CC1)OC[C@H]1[C@@H](NS(=O)(=O)C(C)C)CCCN1C(=O)CO2 (stereo in doubt) [Compound 69] | < 10 nM
Cc1ncnc2c1[C@H]1CC[C@H](CC1)OC[C@H]1[C@@H](NS(=O)(=O)C3CC3)CCN1C(=O)CO2 (stereo in doubt) [Compound 83] | 10 to 1000 nM
O=C1COc2ccccc2[C@H]2CC[C@H](CC2)OC[C@H]2[C@@H](NS(=O)(=O)C3CCC3)CCCN12 (stereo in doubt) [Compound 42] | < 10 nM
O=C1COc2ccccc2[C@H]2CC[C@H](CC2)OC[C@H]2[C@@H](NS(=O)(=O)CF)CCCN12 (stereo in doubt) [Compound 6] | < 10 nM
O=C1COc2ccccc2[C@H]2CC[C@H](CC2)OC[C@H]2[C@@H](NS(=O)(=O)CC3CCC3)CCCN12 (stereo in doubt) [Compound 43] | 10 to 1000 nM
O=C1COc2ccccc2[C@H]2CC[C@H](CC2)OC[C@H]2[C@@H](NS(=O)(=O)CC3CC3)CCCN12 (stereo in doubt) [Compound 48] | < 10 nM
CS(=O)(=O)N[C@H]1CCCN2C(=O)COc3ccc(C#N)cc3[C@H]3CC[C@H](CC3)OC[C@@H]12 (stereo in doubt) [Compound 46] | 10 to 1000 nM
CC(C)(C)S(=O)(=O)N[C@H]1CCCN2CCOc3ccccc3[C@H]3CC[C@H](CC3)OC[C@@H]12 (stereo in doubt) [Compound 56] | > 1000 nM
CC(C)(C)S(=O)(=O)N[C@H]1CCCN2C(=O)COc3ccccc3[C@H]3CC[C@H](CC3)OC[C@@H]12 (stereo in doubt) [Compound 44] | 10 to 1000 nM
CC(C)S(=O)(=O)N[C@H]1CCCN2C(=O)COc3nccnc3[C@H]3CC[C@H](CC3)OC[C@@H]12 (stereo in doubt) [Compound 66] | < 10 nM
O=C1COc2ncncc2[C@H]2CC[C@H](CC2)OC[C@H]2[C@@H](NS(=O)(=O)C3CC3)CCCN12 (stereo in doubt) [Compound 97] | 10 to 1000 nM
O=C1COc2ccccc2[C@H]2CC[C@H](CC2)OC[C@H]2[C@@H](NS(=O)(=O)C3CC3)CCN12 (stereo in doubt) [Compound 105] | < 10 nM
Cc1cccc2c1OCC(=O)N1CCC[C@H](NS(C)(=O)=O)[C@@H]1CO[C@H]1CC[C@@H]2CC1 (stereo in doubt) [Compound 37] | < 10 nM
O=S(=O)(CC1CC1)N[C@H]1CCCN2CCOc3ccccc3[C@H]3CC[C@H](CC3)OC[C@@H]12 (stereo in doubt) [Compound 59] | 10 to 1000 nM
O=C1COc2ccccc2[C@H]2CC[C@H](CC2)OC[C@H]2[C@@H](NS(=O)(=O)C(F)(F)F)CCCN12 (stereo in doubt) [Compound 11] | < 10 nM
Cc1ncnc2c1[C@H]1CC[C@H](CC1)OC[C@H]1[C@@H](NS(=O)(=O)C(C)C)CCN1C(=O)CO2 (stereo in doubt) [Compound 86] | 10 to 1000 nM
Cc1cccc2c1[C@H]1CC[C@H](CC1)OC[C@H]1[C@@H](NS(=O)(=O)C(C)C)CCN1C(=O)CO2 (stereo in doubt) [Compound 79] | < 10 nM
Cc1ccnc2c1[C@H]1CC[C@H](CC1)OC[C@H]1[C@@H](NS(=O)(=O)C3CC3)CCN1C(=O)CO2 (stereo in doubt) [Compound 92] | < 10 nM
Cc1ccc2c(c1)[C@H]1CC[C@H](CC1)OC[C@H]1[C@@H](NS(C)(=O)=O)CCCN1C(=O)CO2 (stereo in doubt) [Compound 17] | < 10 nM
Cc1ccc2c(c1C)[C@H]1CC[C@H](CC1)OC[C@H]1[C@@H](NS(C)(=O)=O)CCCN1C(=O)CO2 (stereo in doubt) [Compound 78] | < 10 nM
CCS(=O)(=O)N[C@H]1CCCN2CCOc3ccccc3[C@H]3CC[C@H](CC3)OC[C@@H]12 (stereo in doubt) [Compound 53] | > 1000 nM
Cc1ccc2c(c1)OCC(=O)N1CCC[C@H](NS(C)(=O)=O)[C@@H]1CO[C@H]1CC[C@@H]2CC1 (stereo in doubt) [Compound 40] | 10 to 1000 nM
C=CS(=O)(=O)N[C@H]1CCCN2C(=O)COc3ccccc3[C@H]3CC[C@H](CC3)OC[C@@H]12 (stereo in doubt) [Compound 5] | < 10 nM

Compound | EC50
Cc1cnc2c(c1)[C@H]1CC[C@H](CC1)OC[C@H]1[C@@H](NS(=O)(=O)C(C)C)CCCN1C(=O)CO2 (stereo in doubt) [Compound 34] | < 10 nM
Cc1c(Cl)ccc2c1[C@H]1CC[C@H](CC1)OC[C@H]1[C@@H](NS(=O)(=O)C(C)C)CCCN1C(=O)CO2 (stereo in doubt) [Compound 28] | < 10 nM
O=C1COc2ccccc2[C@H]2CC[C@H](CC2)OC[C@H]2[C@@H](NS(=O)(=O)C3CC3)CCCN12 (stereo in doubt) [Compound 1] | < 10 nM
Cc1ccc2c(c1)[C@H]1CC[C@H](CC1)OC[C@H]1[C@@H](NS(=O)(=O)C(C)C)CCCN1C(=O)CO2 (stereo in doubt) [Compound 18] | < 10 nM
O=S(=O)(N[C@H]1CCCN2CCOc3ccccc3[C@H]3CC[C@H](CC3)OC[C@@H]12)C1CCC1 (stereo in doubt) [Compound 57] | 10 to 1000 nM
CC(C)S(=O)(=O)N[C@H]1CCCN2C(=O)COc3ccc(Cl)cc3[C@H]3CC[C@H](CC3)OC[C@@H]12 (stereo in doubt) [Compound 26] | < 10 nM
O=C1COc2ccc(Cl)cc2[C@H]2CC[C@H](CC2)OC[C@H]2[C@@H](NS(=O)(=O)C3CC3)CCCN12 (stereo in doubt) [Compound 16] | < 10 nM
O=C1COc2ncccc2[C@H]2CC[C@H](CC2)OC[C@H]2[C@@H](NS(=O)(=O)C3CC3)CCCN12 (stereo in doubt) [Compound 14] | < 10 nM
Cc1ccc2c(c1)OCCN1CCC[C@H](NS(C)(=O)=O)[C@@H]1CO[C@H]1CC[C@@H]2CC1 (stereo in doubt) [Compound 50] | > 1000 nM
Cc1ccc2c(c1)[C@H]1CC[C@H](CC1)OC[C@H]1[C@@H](NS(C)(=O)=O)CCCN1CCO2 (stereo in doubt) [Compound 54] | 10 to 1000 nM
CC(C)S(=O)(=O)N[C@H]1CCCN2CCOc3ccccc3[C@H]3CC[C@H](CC3)OC[C@@H]12 (stereo in doubt) [Compound 52] | > 1000 nM
Cc1ccnc2c1[C@H]1CC[C@H](CC1)OC[C@H]1[C@@H](NS(=O)(=O)C(C)C)CCN1C(=O)CO2 (stereo in doubt) [Compound 93] | < 10 nM
C[C@H]1C[C@H](NS(C)(=O)=O)C2CO[C@H]3CC[C@H](CC3)c3ccccc3OCC(=O)N21 (stereo in doubt) [Compound 111] | 10 to 1000 nM
CC1(S(=O)(=O)N[C@H]2CCCN3CCOc4ccccc4[C@H]4CC[C@H](CC4)OC[C@@H]23)CC1 (stereo in doubt) [Compound 58] | 10 to 1000 nM
CC1(S(=O)(=O)N[C@H]2CCCN3C(=O)COc4ccccc4[C@H]4CC[C@H](CC4)OC[C@@H]23)CC1 (stereo in doubt) [Compound 8] | < 10 nM
O=S(=O)(N[C@H]1CCCN2CCOc3ncccc3[C@H]3CC[C@H](CC3)OC[C@@H]12)C1CC1 (stereo in doubt) [Compound 63] | > 1000 nM
Cc1ccnc2c1[C@H]1CC[C@H](CC1)OC[C@H]1[C@@H](NS(=O)(=O)C3COC3)CCN1C(=O)CO2 (stereo in doubt) [Compound 109] | < 10 nM
Cc1ncnc2c1[C@H]1CC[C@H](CC1)OC[C@H]1[C@@H](NS(C)(=O)=O)CCN1C(=O)CO2 (stereo in doubt) [Compound 82] | 10 to 1000 nM
Cc1cccc2c1[C@H]1CC[C@H](CC1)OC[C@H]1[C@@H](NS(=O)(=O)C3CC3)CCCN1C(=O)CO2 (stereo in doubt) [Compound 4] | < 10 nM
O=S(=O)(N[C@H]1CCCN2CCOc3ccccc3[C@H]3CC[C@H](CC3)OC[C@@H]12)C1CC1 (stereo in doubt) [Compound 51] | 10 to 1000 nM
CC(C)S(=O)(=O)N[C@H]1CCCN2CCOc3ncccc3[C@H]3CC[C@H](CC3)OC[C@@H]12 (stereo in doubt) [Compound 64] | > 1000 nM
CN(C)CCS(=O)(=O)N[C@H]1CCCN2C(=O)COc3ccccc3[C@H]3CC[C@H](CC3)OC[C@@H]12 (stereo in doubt) [Compound 39] | < 10 nM
CC(C)S(=O)(=O)N[C@H]1CCCN2C(=O)COc3ccccc3[C@H]3CC[C@H](CC3)OC[C@@H]12 (stereo in doubt) [Compound 3] | < 10 nM
